Measured values taken from PubChem BioAssay AID302 (DTP/NCI, 2004).
Values joined by “and” are separate entries in the source; they are usually repeats but may differ in a detail not shown here. Identical values can stand only once. Inconclusive results and toxic doses are left out. Rule for the calls: active = survival T/C of 150% or more; inactive = T/C below 125% in these data. Starred links: 1 amine or outer side, 2 acyl side, 3 side chain; linkers in the order of their positions; H or OH if unused. Positions of bridges follow the written chain, without caps; N, C: chain ends. Non-standard residues stand in square brackets, D forms with d. Residues, ends and D or L forms follow the SMILES beside them. Chains are numbered I, II in the order given. Actinocin(9to1) = Cc1c2oc3c(C)ccc(C(=O)[*:1])c3nc-2c(C(=O)[*:2])c(N)c1=O; NMeV = CN[CH](C(=O)O)C(C)C; Sar = CNCC(=O)O

Tested on: BALB/c mice, Madison 109 lung carcinoma i.m., survival
Experiment: NCI In Vivo Anticancer Drug Screen. Data for tumor model Madison 109 Lung Carcinoma (intramuscular) in BALB/CM mice
Settings: endpoint: median survival time, higher = longer survival
Protocol: The antitumor activity of compounds was measured in mice bearing transplantable tumors. Survival or tumor size were measured and the results are expressed as the measurement made in the treated group (T) divided by the measurement made in the vehicle treated control group (C). The tumor model used in this assay is Madison 109 Lung Carcinoma (intramuscular) in BALB/CM mice

[1] = dose: 5.0 mg/kg/injection, schedule: Q01DX009 (ip), vehicle: saline with Tween-80
[2] = dose: 10.0 mg/kg/injection, schedule: Q01DX009 (ip), vehicle: saline with Tween-80
[3] = dose: 20.0 mg/kg/injection, schedule: Q01DX009 (ip), vehicle: saline with Tween-80
[4] = dose: 40.0 mg/kg/injection, schedule: Q01DX009 (ip), vehicle: saline with Tween-80
[5] = dose: 80.0 mg/kg/injection, schedule: Q01DX009 (ip), vehicle: saline with Tween-80
[6] = dose: 3.12 mg/kg/injection, schedule: Q01DX009 (ip), vehicle: saline with Tween-80
[7] = dose: 6.25 mg/kg/injection, schedule: Q01DX009 (ip), vehicle: saline with Tween-80
[8] = dose: 12.5 mg/kg/injection, schedule: Q01DX009 (ip), vehicle: saline with Tween-80
[9] = dose: 4.0 mg/kg/injection, schedule: Q01DX009 (ip), vehicle: saline with Tween-80
[10] = dose: 25.0 mg/kg/injection, schedule: Q01DX009 (ip), vehicle: saline
[11] = dose: 50.0 mg/kg/injection, schedule: Q01DX009 (ip), vehicle: saline
[12] = dose: 25.0 mg/kg/injection, schedule: Q01DX009 (ip), vehicle: saline with Tween-80
[13] = dose: 50.0 mg/kg/injection, schedule: Q01DX009 (ip), vehicle: saline with Tween-80
[14] = dose: 0.5 mg/kg/injection, schedule: Q01DX009 (ip), vehicle: saline with Tween-80
[15] = dose: 1.0 mg/kg/injection, schedule: Q01DX009 (ip), vehicle: saline with Tween-80
[16] = dose: 2.0 mg/kg/injection, schedule: Q01DX009 (ip), vehicle: saline with Tween-80
[17] = dose: 100.0 mg/kg/injection, schedule: Q01DX009 (ip), vehicle: saline with Tween-80
[18] = dose: 0.25 mg/kg/injection, schedule: Q01DX009 (ip), vehicle: saline with Tween-80

Measured: T/C

C[C@]12C=CC(=O)C=C1CC[C@@H]1[C@@H]2C(=O)C[C@@]2(C)[C@H]1CC[C@]2(O)C(=O)CO
inactive: [1] 95 % of control | [2] 98 % of control | [3] 97 % of control | [4] 92 % of control | [5] 92 % of control

O=C1C2(Cl)C3(Cl)C4(Cl)C(Cl)(Cl)C5(Cl)[C@]3(Cl)C1(Cl)[C@]5(Cl)C24Cl (stereo partly drawn)
inactive: [6] 112 % of control | [7] 118 % of control | [8] 121 % of control

O=[N+]([O-])c1ccc(Cl)c([N+](=O)[O-])c1
inactive: [1] 102 % of control | dose: 6.25 mg/kg/injection, schedule: Q02DX009 (ip), vehicle: water 117 % of control | [2] 100 % of control | dose: 12.5 mg/kg/injection, schedule: Q02DX009 (ip), vehicle: water 113 % of control | [3] 93 % of control | dose: 25.0 mg/kg/injection, schedule: Q02DX009 (ip), vehicle: water 113 % of control | [4] 105 % of control | dose: 50.0 mg/kg/injection, schedule: Q02DX009 (ip), vehicle: water 107 % of control | [5] 111 % of control | dose: 100.0 mg/kg/injection, schedule: Q02DX009 (ip), vehicle: water 107 % of control

O=C1c2ccccc2C(=O)c2c(NCCNCCO)ccc(NCCNCCO)c21
inactive: dose: 0.5 mg/kg/injection, schedule: Q01DX009 (ip), vehicle: saline 116 % of control | dose: 1.0 mg/kg/injection, schedule: Q01DX009 (ip), vehicle: saline 119 % of control | dose: 2.0 mg/kg/injection, schedule: Q01DX009 (ip), vehicle: saline 102 % of control and 117 % of control | [9] 107 % of control and 115 % of control | dose: 4.0 mg/kg/injection, schedule: Q01DX009 (ip), vehicle: saline 117 % of control and 121 % of control | dose: 8.0 mg/kg/injection, schedule: Q01DX009 (ip), vehicle: saline with Tween-80 100 % of control and 118 % of control | dose: 8.0 mg/kg/injection, schedule: Q01DX009 (ip), vehicle: saline 113 % of control and 119 % of control | dose: 16.0 mg/kg/injection, schedule: Q01DX009 (ip), vehicle: saline 111 % of control

O=C1C=CC(=O)O1 (tested in a mixture with another compound)
inactive: dose: 12.5 mg/kg/injection, schedule: Q01DX009 (ip), vehicle: saline 113 % of control | [10] 110 % of control | [11] 104 % of control | dose: 100.0 mg/kg/injection, schedule: Q01DX009 (ip), vehicle: saline 110 % of control

O=[N+]([O-])c1cccc([N+](=O)[O-])c1Cl
inactive: [1] 101 % of control and 120 % of control | [2] 87 % of control and 99 % of control | [3] 120 % of control [middle of 4 runs] | [4] 114 % of control and 96 % of control and 120 % of control | [5] 90 % of control and 93 % of control and 121 % of control | dose: 160.0 mg/kg/injection, schedule: Q01DX009 (ip), vehicle: saline with Tween-80 104 % of control and 99 % of control and 119 % of control | dose: 320.0 mg/kg/injection, schedule: Q01DX009 (ip), vehicle: saline with Tween-80 87 % of control

CN(CO)c1nc(N(C)CO)nc(N(C)CO)n1
inactive: dose: 1.56 mg/kg/injection, schedule: Q01DX009 (ip), vehicle: saline with Tween-80 94 % of control and 101 % of control | [6] 100 % of control and 112 % of control | [7] 100 % of control and 120 % of control | [8] 107 % of control and 114 % of control | [12] 104 % of control and 108 % of control | [13] 120 % of control

CNc1nc(N(C)C)nc(N(C)C)n1
inactive: [10] 100 % of control | [11] 100 % of control

c1ccc([C@H]2CN3CCSC3=N2)cc1
inactive: dose: 5.0 mg/kg/injection, schedule: Q01DX009 (ip), vehicle: saline 94 % of control | dose: 10.0 mg/kg/injection, schedule: Q01DX009 (ip), vehicle: saline 96 % of control | dose: 20.0 mg/kg/injection, schedule: Q01DX009 (ip), vehicle: saline 103 % of control

CC(=O)OCC1OC(OC(C)=O)C(NC(=O)N(CCCl)N=O)C(OC(C)=O)C1OC(C)=O (stereo not drawn)
inactive: [14] 100 % of control and 111 % of control | [15] 92 % of control and 102 % of control and 109 % of control | [16] 94 % of control and 112 % of control | [9] 110 % of control and 118 % of control

O=C(N[C@H](CO)[C@H](O)c1ccc([N+](=O)[O-])cc1)C(Cl)Cl
inactive: [17] 118 % of control | dose: 200.0 mg/kg/injection, schedule: Q01DX009 (ip), vehicle: saline with Tween-80 107 % of control | dose: 400.0 mg/kg/injection, schedule: Q01DX009 (ip), vehicle: saline with Tween-80 118 % of control

COc1cccc2c1C(=O)c1c(O)c3c(c(O)c1C2=O)CC(O)(C(=O)CO)CC3OC1CC(N)C(O)C(C)O1 (stereo not drawn)
inactive: [2] 100 % of control | [3] 108 % of control

CN(C)c1nc(N(C)C)nc(N(C)C)n1
inactive: [8] 104 % of control | [12] 90 % of control and 103 % of control | [13] 97 % of control and 102 % of control | [17] 99 % of control

COC1=C(N)C(=O)c2nc(-c3nc(C(=O)O)c(C)c(-c4ccc(OC)c(OC)c4O)c3N)ccc2C1=O
inactive: dose: 0.01 mg/kg/injection, schedule: Q01DX009 (ip), vehicle: saline with Tween-80 95 % of control | dose: 0.02 mg/kg/injection, schedule: Q01DX009 (ip), vehicle: saline with Tween-80 95 % of control | dose: 0.04 mg/kg/injection, schedule: Q01DX009 (ip), vehicle: saline with Tween-80 92 % of control | dose: 0.16 mg/kg/injection, schedule: Q01DX009 (ip), vehicle: saline with Tween-80 93 % of control

CC(C)CC(NC(=O)C(O)C(N)Cc1ccccc1)C(=O)O (stereo not drawn)
inactive: dose: 10.0 micrograms/kg/injection, schedule: Q01DX005 (ip), vehicle: saline 101 % of control

O=c1cc[nH]c(=O)[nH]1
inactive: dose: 32.0 mg/kg/injection, schedule: Q01DX009 (ip), vehicle: saline with Tween-80 95 % of control and 110 % of control | dose: 64.0 mg/kg/injection, schedule: Q01DX009 (ip), vehicle: saline with Tween-80 96 % of control and 110 % of control | dose: 128.0 mg/kg/injection, schedule: Q01DX009 (ip), vehicle: saline with Tween-80 102 % of control and 105 % of control | dose: 256.0 mg/kg/injection, schedule: Q01DX009 (ip), vehicle: saline with Tween-80 100 % of control and 110 % of control | dose: 512.0 mg/kg/injection, schedule: Q01DX009 (ip), vehicle: saline with Tween-80 94 % of control and 107 % of control

CCOC(=O)NC1=C(N2CC2)C(=O)C(NC(=O)OCC)=C(N2CC2)C1=O
inactive: dose: 0.12 mg/kg/injection, schedule: Q01DX009 (ip), vehicle: saline with Tween-80 99 % of control and 102 % of control and 111 % of control | [18] 105 % of control and 111 % of control | [14] 103 % of control and 105 % of control

COc1cccc2c1C(=O)c1c(O)c3c(c(O)c1C2=O)C[C@@](O)(/C(C)=N/NC(=O)c1ccccc1)C[C@@H]3OC1CC(N)C(O)C(C)O1 (stereo partly drawn)
inactive: [18] 104 % of control | [14] 111 % of control | [15] 124 % of control | [16] 86 % of control and 118 % of control

Cc1c2oc3c(C)ccc(C(=O)NC4C(=O)NC(C(C)C)C(=O)N5CCCC5C(=O)N(C)CC(=O)N(C)C(C(C)C)C(=O)OC4C)c3nc-2c(C(=O)NC2C(=O)NC(C(C)C)C(=O)N3CCCC3C(=O)N(C)CC(=O)N(C)C(C(C)C)C(=O)OC2C)c(N)c1=O (stereo not drawn) (I: TVP[Sar][NMeV] / II: TVP[Sar][NMeV]; ester I:1-I:C, II:1-II:C; linker I:N-II:N via Actinocin(9to1); configuration not given here)
inactive: dose: 0.03 mg/kg/injection, schedule: Q01DX009 (ip), vehicle: saline 101 % of control | dose: 0.06 mg/kg/injection, schedule: Q01DX009 (ip), vehicle: saline 107 % of control | dose: 0.12 mg/kg/injection, schedule: Q01DX009 (ip), vehicle: saline 101 % of control | dose: 0.25 mg/kg/injection, schedule: Q01DX009 (ip), vehicle: saline 119 % of control

O=[N+]([O-])c1ccc([N+](=O)[O-])c(Cl)c1
inactive: dose: 2.5 mg/kg/injection, schedule: Q01DX009 (ip), vehicle: saline with Tween-80 101 % of control | [1] 97 % of control | [2] 99 % of control

CC(=O)c1cccc(NC2C(N)C(NC(=O)N(C)C)(C(C)O)C(C)(O)C2(O)COC(=O)c2c(C)cccc2O)c1 (stereo not drawn)
inactive: dose: 0.3 mg/kg/injection, schedule: Q01DX009 (ip), vehicle: saline 98 % of control | dose: 0.6 mg/kg/injection, schedule: Q01DX009 (ip), vehicle: saline 100 % of control | dose: 1.2 mg/kg/injection, schedule: Q01DX009 (ip), vehicle: saline 103 % of control
